How the values were obtained:
Format in all cases: cell-based
[1] = system: IGROV-ET; experiment: Inhibition of cell growth by colorimetric SRB assay, IGROV-ET; conditions: Homo sapiens, IGROV-ET, 48 hours exposure; for CC50: cell killing, read-out: LC50 (the source's name); for IC (total growth inhibition): read-out: TGI
Text: (§1) The finality of these assays is to interrupt the growth of a “in vitro” tumor cell culture by means a continued exhibition of the cells to the sample to be testing.
(§2) Inhibition of Cell Growth by Colorimetric Assay.
(§3) A colorimetric type of assay, using sulforhodamine B (SRB) reaction has been adapted for a quantitative measurement of cell growth and viability (following the technique described by P. A. Skehan, et al., J. Natl. CancerInst. 1990, 82, 1107-1112).
(§4) This form of assay employs 96 well cell culture microplates of 9 mm diameter (T. Mosmann et al., J. of Immuological Methods 1983, 65, 55-63; G. T. Faircloth et al., J. of Tissue and Culture Methods 1988, 11, 201-205). Most of the cell lines are obtained from American Type Culture Collection (ATCC) derived from different human cancer types.
(§5) Cells are maintained in RPMI 1640 10% FBS, supplemented with 0.1 g/L penicillin and 0.1 g/L streptomycin sulfate and then incubated at 37° C., 5% CO2 and 98% humidity. For the experiments, cells were harvested from subconfluent cultures using trypsin and resuspended in fresh medium before plating.
(§6) Cells are seeded in 96 well microtiter plates, at 5×10^3 cells per well in aliquots of 195 μL medium, and they are allowed to attach to the plate surface by growing in drug free medium for 18 hours. Afterward, samples are added in aliquots of 5 μL in a ranging from 10 to 10^−8 μg/mL, dissolved in DMSO/EtOH/PBS (0.5:0.5:99). After 48 hours exposure, the antitumor effect are measured by the SRB methodology: cells are fixed by adding 50 μL of cold 50% (wt/vol) trichloroacetic acid (TCA) and incubated for 60 minutes at 4° C. Plates are washed with deionizer water and dried. One hundred μl of SRB solution (0.4% wt/vol in 1% acetic acid) is added to each microliter well and incubated for 10 minutes at room temperature. Unbound SRB is removed by washing with 1% acetic acid. Plates are air dried and bound stain is solubilized with Tris buffer. Optical densities are read on a automated spectrophotometric plate reader at a single wavelength of 490 nm.
(§7) The values for mean +/−SD of data from triplicate wells are calculated. Some parameters for cellular responses can be calculated: GI=growth inhibition, TGI=total growth inhibition (cytostatic effect) and LC=cell killing (cytotoxic effect).

[2] = system: A-549; experiment: Inhibition of cell growth by colorimetric SRB assay, A-549; conditions: Homo sapiens, A549, A-549, 48 hours exposure; for CC50: cell killing, read-out: LC50 (the source's name); for IC (total growth inhibition): read-out: TGI
Text: as §1, §2, §3, §4, §5, §6, §7

[3] = system: SK-MEL-28; experiment: Inhibition of cell growth by colorimetric SRB assay, MEL-28; conditions: Homo sapiens, SK-MEL-28, MEL-28, 48 hours exposure; for CC50: cell killing, read-out: LC50 (the source's name); for IC (total growth inhibition): read-out: TGI
Text: as §1, §2, §3, §4, §5, §6, §7

[4] = system: HeLa-APL; experiment: Inhibition of cell growth by colorimetric SRB assay, HELA-APL; conditions: Homo sapiens; for GI50 / IC (total growth inhibition): 48 h; for CC50: HELA-APL, 48 hours exposure, cell killing, read-out: LC50 (the source's name); for IC (total growth inhibition): read-out: TGI
Text: as §1, §2, §3, §4, §5, §6, §7

[5] = system: DU-145; experiment: Inhibition of cell growth by colorimetric SRB assay, DU-145; conditions: Homo sapiens, DU-145, 48 hours exposure; for CC50: cell killing, read-out: LC50 (the source's name); for IC (total growth inhibition): read-out: TGI
Text: as §1, §2, §3, §4, §5, §6, §7

[6] = system: LNCaP; experiment: Inhibition of cell growth by colorimetric SRB assay, LN-caP; conditions: Homo sapiens, LN-caP, 48 hours exposure; for CC50: cell killing, read-out: LC50 (the source's name); for IC (total growth inhibition): read-out: TGI
Text: as §1, §2, §3, §4, §5, §6, §7

[7] = system: LoVo-Dox; experiment: Inhibition of cell growth by colorimetric SRB assay, LOVO-DOX; conditions: Homo sapiens, LOVO-DOX, 48 hours exposure; for LC50 (concentration for 50% cell killing): read-out: LC50; for IC (total growth inhibition): read-out: TGI
Text: as §1, §2, §3, §4, §5, §6, §7

[8] = system: K-562; experiment: Inhibition of cell growth by colorimetric SRB assay, K-562; conditions: Homo sapiens, K562, K-562, 48 hours exposure; for CC50: cell killing, read-out: LC50 (the source's name); for IC (total growth inhibition): read-out: TGI
Text: as §1, §2, §3, §4, §5, §6, §7

[9] = system: HT-29; experiment: Inhibition of cell growth by colorimetric SRB assay, HT-29; conditions: Homo sapiens, HT-29, 48 hours exposure; for CC50: cell killing, read-out: LC50 (the source's name); for IC (total growth inhibition): read-out: TGI
Text: as §1, §2, §3, §4, §5, §6, §7

[10] = system: LoVo; experiment: Inhibition of cell growth by colorimetric SRB assay, LOVO; conditions: Homo sapiens, LOVO, 48 hours exposure; for LC50: cell killing, read-out: LC50; for IC (total growth inhibition): read-out: TGI
Text: as §1, §2, §3, §4, §5, §6, §7

[11] = system: PANC-1; experiment: Inhibition of cell growth by colorimetric SRB assay, PANC-1; conditions: Homo sapiens, PANC-1, 48 hours exposure; for CC50: cell killing, read-out: LC50 (the source's name); for IC (total growth inhibition): read-out: TGI
Text: as §1, §2, §3, §4, §5, §6, §7

[12] = system: SK-BR-3; experiment: Inhibition of cell growth by colorimetric SRB assay, SK-BR-3; conditions: SK-BR-3, 48 hours exposure
Text: as §1, §2, §3, §4, §5, §6, §7

[13] = system: IGROV; experiment: Inhibition of cell growth by colorimetric SRB assay, IGROV; conditions: Homo sapiens, 48 hours exposure; for CC50: cell killing, read-out: LC50 (the source's name); for IC (total growth inhibition): read-out: TGI
Text: as §1, §2, §3, §4, §5, §6, §7

[14] = system: HeLa; experiment: Inhibition of cell growth by colorimetric SRB assay, HELA; conditions: Homo sapiens, HELA, 48 hours exposure; for CC50: cell killing, read-out: LC50 (the source's name); for IC (total growth inhibition): read-out: TGI
Text: as §1, §2, §3, §4, §5, §6, §7

C/C=C\[C@H](C)[C@H]1OC1(C)[C@@H](O[Si](C)(C)C(C)(C)C)[C@@H](CO)C(=O)[C@H](CO)[C@@H](O)CC(=O)CC (stereo partly shown) [20a + 20c]
GI50 [1]: 13.8 µM
CC50 [1]: ≥ 20.5 µM
IC (total growth inhibition) [1]: 20.5 µM
GI50 [2]: ≥ 20.5 µM
CC50 [2]: ≥ 20.5 µM
IC (total growth inhibition) [2]: 20.5 µM
GI50 [3]: 16.3 µM
CC50 [3]: ≥ 20.5 µM
IC (total growth inhibition) [3]: 20.5 µM
GI50 [4]: 12.9 µM
CC50 [4]: ≥ 20.5 µM
GI50 [5]: 10.7 µM
CC50 [5]: ≥ 20.5 µM
IC (total growth inhibition) [5]: 20.5 µM
GI50 [6]: 8.42 µM
CC50 [6]: ≥ 20.5 µM
IC (total growth inhibition) [6]: 20.5 µM
GI50 [7]: 85.1 µM
LC50 (concentration for 50% cell killing) [7]: ≥ 20.5 µM
IC (total growth inhibition) [7]: 20.5 µM
GI50 [8]: 7.75 µM
CC50 [8]: ≥ 20.5 µM
IC (total growth inhibition) [8]: 20.5 µM
GI50 [9]: 17.1 µM
CC50 [9]: ≥ 20.5 µM
IC (total growth inhibition) [9]: 20.5 µM
GI50 [10]: 10.4 µM
LC50 [10]: ≥ 20.5 µM
IC (total growth inhibition) [10]: 20.5 µM
GI50 [11]: 14 µM
CC50 [11]: ≥ 20.5 µM
IC (total growth inhibition) [11]: 20.5 µM
GI50 ([12]; Homo sapiens): 11.1 µM
CC50 ([12]; Homo sapiens, cell killing, read-out: LC50 (the source's name)): ≥ 20.5 µM
TGI ([12]; total growth inhibition): 2.05E−05 Molar
GI50 [13]: 14.1 µM
CC50 [13]: ≥ 20.5 µM
IC (total growth inhibition) [13]: 20.5 µM
GI50 [14]: 13.3 µM
CC50 [14]: ≥ 20.5 µM
IC (total growth inhibition) [14]: 20.5 µM

C/C=C\[C@H](C)[C@H]1OC1(C)[C@@H](O[Si](C)(C)C(C)(C)C)[C@@H](COC(C)=O)C(=O)[C@H](CO)[C@@H](O)CC(=O)CC (stereo partly shown) [Compound 46]
GI50 [1]: 7.39 µM
CC50 [1]: 18.9 µM
IC (total growth inhibition) [1]: 18.9 µM
GI50 [2]: 13.4 µM
CC50 [2]: 18.9 µM
IC (total growth inhibition) [2]: 18.9 µM
GI50 [3]: 9.89 µM
CC50 [3]: 18.9 µM
IC (total growth inhibition) [3]: 18.9 µM
GI50 [4]: 10.1 µM
CC50 [4]: 18.9 µM
GI50 [5]: 9.65 µM
CC50 [5]: 18.9 µM
IC (total growth inhibition) [5]: 18.9 µM
GI50 [6]: 5.24 µM
CC50 [6]: 15.6 µM
IC (total growth inhibition) [6]: 9.06 µM
GI50 [7]: 6.15 µM
LC50 (concentration for 50% cell killing) [7]: 18.9 µM
IC (total growth inhibition) [7]: 18.9 µM
GI50 [8]: 12 µM
CC50 [8]: 18.9 µM
IC (total growth inhibition) [8]: 18.9 µM
GI50 [9]: 15 µM
CC50 [9]: 18.9 µM
IC (total growth inhibition) [9]: 18.9 µM
GI50 [10]: 4.37 µM
LC50 [10]: 18.9 µM
IC (total growth inhibition) [10]: 10 µM
GI50 [11]: 7.38 µM
CC50 [11]: 18.9 µM
IC (total growth inhibition) [11]: 18.9 µM
GI50 [13]: 7.74 µM
CC50 [13]: 18.9 µM
IC (total growth inhibition) [13]: 18.9 µM
GI50 [14]: 8.81 µM
CC50 [14]: 18.9 µM
IC (total growth inhibition) [14]: 18.9 µM

C/C=C\[C@H](C)[C@H]1OC1(C)[C@@H](O[Si](C)(C)C(C)(C)C)[C@@H](COC(C)=O)C(=O)[C@H](COC(C)=O)[C@H](O)CC(=O)CC (stereo partly shown) [Compound 44]
GI50 [1]: 4.15 µM
CC50 [1]: 15.8 µM
IC (total growth inhibition) [1]: 8.09 µM
GI50 [2]: 4.01 µM
CC50 [2]: 15.4 µM
IC (total growth inhibition) [2]: 7.87 µM
GI50 [3]: 3.84 µM
CC50 [3]: 12.6 µM
IC (total growth inhibition) [3]: 6.96 µM
GI50 [4]: 3.77 µM
IC (total growth inhibition) [4]: 9.83 µM
CC50 [4]: 17.5 µM
GI50 [5]: 4.99 µM
CC50 [5]: 17.5 µM
IC (total growth inhibition) [5]: 10.4 µM
GI50 [6]: 3.77 µM
CC50 [6]: 16.6 µM
IC (total growth inhibition) [6]: 7.88 µM
GI50 [7]: 4.27 µM
LC50 (concentration for 50% cell killing) [7]: 17.5 µM
IC (total growth inhibition) [7]: 8.9 µM
GI50 [8]: 6.1 µM
CC50 [8]: 17.5 µM
IC (total growth inhibition) [8]: 11.4 µM
GI50 [9]: 6.22 µM
CC50 [9]: 17 µM
IC (total growth inhibition) [9]: 17.5 µM
GI50 [10]: 4.05 µM
LC50 [10]: 17.5 µM
IC (total growth inhibition) [10]: 8.99 µM
GI50 [11]: 3.73 µM
CC50 [11]: 13.8 µM
IC (total growth inhibition) [11]: 7.2 µM
GI50 [13]: 4.13 µM
CC50 [13]: 14.2 µM
IC (total growth inhibition) [13]: 7.67 µM
GI50 [14]: 3.91 µM
CC50 [14]: 14.7 µM
IC (total growth inhibition) [14]: 7.59 µM

C/C=C\[C@H](C)[C@H]1OC1(C)[C@@H](O[Si](C)(C)C(C)(C)C)[C@@H](COC(C)=O)C(=O)[C@H](CO)[C@H](O)CC(=O)CC (stereo partly shown) [Compound 43]
GI50 [1]: 4.52 µM
CC50 [1]: 17.8 µM
IC (total growth inhibition) [1]: 8.96 µM
GI50 [2]: 4.44 µM
CC50 [2]: 16.2 µM
IC (total growth inhibition) [2]: 8.49 µM
GI50 [3]: 3.9 µM
CC50 [3]: 13.4 µM
IC (total growth inhibition) [3]: 7.24 µM
GI50 [4]: 4.27 µM
IC (total growth inhibition) [4]: 9.34 µM
CC50 [4]: 18.9 µM
GI50 [5]: 4.99 µM
CC50 [5]: 18.7 µM
IC (total growth inhibition) [5]: 9.66 µM
GI50 [6]: 3.78 µM
CC50 [6]: 15.4 µM
IC (total growth inhibition) [6]: 7.62 µM
GI50 [7]: 3.31 µM
LC50 (concentration for 50% cell killing) [7]: 15.7 µM
IC (total growth inhibition) [7]: 7.21 µM
GI50 [8]: 3.59 µM
CC50 [8]: 16.5 µM
IC (total growth inhibition) [8]: 7.72 µM
GI50 [9]: 4.24 µM
CC50 [9]: 16.2 µM
IC (total growth inhibition) [9]: 8.28 µM
GI50 [10]: 4.03 µM
LC50 [10]: 18.9 µM
IC (total growth inhibition) [10]: 9.06 µM
GI50 [11]: 3.73 µM
CC50 [11]: 13.2 µM
IC (total growth inhibition) [11]: 7.02 µM
GI50 [13]: 4.94 µM
CC50 [13]: 18.9 µM
IC (total growth inhibition) [13]: 9.99 µM
GI50 [14]: 4.37 µM
CC50 [14]: 16.4 µM
IC (total growth inhibition) [14]: 8.47 µM

— patent publication US7521478B2, “Total synthesis of myriaporones” (Pharma Mar, S.A.U., priority 2002, dated 2009)
